What was measured:
[1] = tested on: LPS-induced TNFα secretion; test: LPS Mouse Assay, serum TNFα by ELISA; format: in vivo; settings: Balb C ByJ mice, 1 mg/kg LPS i.p., serum 2 hours after LPS
Description: (§1) 7 week old Balb C ByJ mice (24-28 g) were administered, either by oral (10 ml/kg) administration, with vehicle or test article. 30 minutes later, these animals were challenged with an intraperitoneal injection of 1 mg/kg LPS. 2 hours after LPS challenge, blood samples were collected under light isoflurane anaesthesia into normal tubes by retro-orbital puncture. Samples were allowed to clot at room temperature and then spun at 6000 g for 3 min at 4° C. Serum was stored at −20° C. until use. Serum TNFα and IL-10 levels were analysed in duplicate by ELISA technique.

IL-1β = test: LPS Mouse Assay, IL-1β levels; format: in vivo; settings: 3, 10 and 30 mg/kg oral, Balb C ByJ mice, 1 mg/kg LPS i.p., serum 2 hours after LPS
Description: as §1

[2] = tested on: intra-plantar carrageenan induced paw oedema; test: Carrageenan Paw Assay; format: in vivo; settings: 0.3 to 30 mg/kg oral gavage, male Wistar rats, paw measured 1-5 hours after carrageenan
Description: Fasted (18 hour) male Wistar rats (105-130 g) were weighed and a basal mercury plethysmometer reading was taken of the right hind paw by submerging the paw in the mercury up to the tibiotarsal joint. Subsequently, vehicles, reference items and test articles were administered by oral gavage (10 ml/kg). 30 minutes after treatment, 0.1 ml of 2% carrageenan in 0.9% saline was injected into the subplanatar area of the right hind paw. The right paw was measured again with the plethysmometer, at 1, 2, 3, 4 and 5 hours after carrageenan administration.

[3] = tested on: pro-MMPs-1, -3, -9 and -13; settings: rabbit articular chondrocytes; cited from earlier work
TIMP-1 = settings: rabbit articular chondrocytes; cited from earlier work
IL-1β and TNFα = settings: human osteoarthritic synovium and chondrocytes; cited from earlier work
cytokine gene expression = settings: model of lupus nephritis; cited from earlier work

| SMILES | effect on LPS-induced TNFα secretion ([1]; 30 mg/kg oral) | effect in carrageenan induced paw oedema model of inflammation [2] | production of pro-matrix metalloproteinases (pro-MMPs-1, -3, -9 and -13) [3] | production of tissue inhibitor of metalloproteinases (TIMP-1) (TIMP-1) | also measured |
| --- | --- | --- | --- | --- | --- |
| O=C1c2cccc(OC(=O)C3CCOCC3)c2C(=O)c2c(OC(=O)C3CCOCC3)cc(C(=O)N3CCOCC3)cc21 [Example 1, 1,8-bis(tetrahydropyran-4-carbonyloxy)-3-(morpholine-4-carbonyl)-9,10-dioxo-9,10-dihydroanthracene] | produced an effect | dose-dependant effect |  |  | IL-1β levels from LPS stimulus (IL-1β): reduced IL-1β levels |
| CCNC(=O)c1cc(OC(=O)C2CCOCC2)c2c(c1)C(=O)c1cccc(OC(=O)C3CCOCC3)c1C2=O [Example 2, 1,8-bis(tetrahydropyran-4-carbonyloxy)-3-ethylcarbamoyl-9,10-dioxo-9,10-dihydroanthracene] |  |  |  |  | effect on LPS-induced TNFα secretion ([1]; 10 mg/kg oral): inhibited |
| COCCOC(=O)c1cc(OC(=O)C2CCOCC2)c2c(c1)C(=O)c1cccc(OC(=O)C3CCOCC3)c1C2=O [Example 3, 4,5-bis(tetrahydropyran-4-carbonyloxy)-9,10-dioxo-9,10-dihydroanthracene-2-carboxylic acid, 2-methoxyethyl ester] | produced an effect |  |  |  |  |
| CCOC(=O)c1cc(OC(=O)C2CCOCC2)c2c(c1)C(=O)c1cccc(OC(=O)C3CCOCC3)c1C2=O [Example 4, 4,5-bis(tetrahydropyran-4-carbonyloxy)-9,10-dioxo-9,10-dihydroanthracene-2-carboxylic acid, ethyl ester] |  | dose-dependant effect |  |  |  |
| CC(=O)Oc1cccc2c1C(=O)c1c(OC(C)=O)cc(C(=O)O)cc1C2=O [diacerein] |  |  | down-regulate | upregulating |  |
| O=C(O)c1cc(O)c2c(c1)C(=O)c1cccc(O)c1C2=O [rhein, 1,8-dihydroxyanthraquinone-3-carboxylic acid] |  |  | down-regulate | upregulating | production of pro-inflammatory cytokines (IL-1β and TNFα) (IL-1β and TNFα): inhibit; cytokine gene expression (cytokine gene expression): inhibit |

From patent publication US20080234258A1, “Dihydroxyanthraquinones and Their Use” (priority 2005, published 2008)
